# Only the 19 paired bases of each siRNA are shown; overhangs and chemistry are not given here.
# Target: PPIB
# Assay: five studies, different assays
# Details: siRNA
# Also: test concentration or dose not given here.
row,Substance,target inhibition
1,sense AUAAUUUUGUGGCCUUAGC / antisense GCUAAGGCCACAAAAUUAU,32.8%
2,sense GUGGCCUUAGCUACAGGAG / antisense CUCCUGUAGCUAAGGCCAC,60.3%
3,sense AGGGGAGAUGGCACAGGAG / antisense CUCCUGUGCCAUCUCCCCU,76.1%
4,sense UCAUGAUCCAGGGCGGAGA / antisense UCUCCGCCCUGGAUCAUGA,92.8%
5,sense CAAGGACUUCAUGAUCCAG / antisense CUGGAUCAUGAAGUCCUUG,74.4%
6,sense GACUUCAUGAUCCAGGGCG / antisense CGCCCUGGAUCAUGAAGUC,51.2%
7,sense GCACAGGAGGAAAGAGCAU / antisense AUGCUCUUUCCUCCUGUGC,90.8%
8,sense CGGUGAGCGCUUCCCCGAU / antisense AUCGGGGAAGCGCUCACCG,80.2%
9,sense GGCCUUAGCUACAGGAGAG / antisense CUCUCCUGUAGCUAAGGCC,94.6%
10,sense GAGAGAAAGGAUUUGGCUA / antisense UAGCCAAAUCCUUUCUCUC,93.4%
11,sense GGCUACAAAAACAGCAAAU / antisense AUUUGCUGUUUUUGUAGCC,77.4%
12,sense ACAGGAGGAAAGAGCAUCU / antisense AGAUGCUCUUUCCUCCUGU,74.5%
13,sense AUCAAGGACUUCAUGAUCC / antisense GGAUCAUGAAGUCCUUGAU,66.4%
14,sense GGAUUUGGCUACAAAAACA / antisense UGUUUUUGUAGCCAAAUCC,83.5%
15,sense GUUCCAAAAACAGUGGAUA / antisense UAUCCACUGUUUUUGGAAC,88.1%
16,sense UUCACCAGGGGAGAUGGCA / antisense UGCCAUCUCCCCUGGUGAA,17.6%

# Target: firefly luciferase
# Assay: five studies, different assays
# Details: siRNA
row,Substance,target inhibition
1,sense CAUUCUAUCCGCUGGAAGA / antisense UCUUCCAGCGGAUAGAAUG,93.2%
2,sense GCUUCGAGCAGACAUGAUA / antisense UAUCAUGUCUGCUCGAAGC,97.7%
3,sense ACGGAAAGACGAUGACGGA / antisense UCCGUCAUCGUCUUUCCGU,73.8%
4,sense GGAAAACUCGACGCAAGAA / antisense UUCUUGCGUCGAGUUUUCC,92.7%
5,sense ACGCAAGAAAAAUCAGAGA / antisense UCUCUGAUUUUUCUUGCGU,87.6%
6,sense CAACCGCGAAAAAGUUGCG / antisense CGCAACUUUUUCGCGGUUG,-1.3%
7,sense UAAAGAAAGGCCCGGCGCC / antisense GGCGCCGGGCCUUUCUUUA,5.9%
8,sense GCACUCUGAUUGACAAAUA / antisense UAUUUGUCAAUCAGAGUGC,93%
9,sense AGUCAAGUAACAACCGCGA / antisense UCGCGGUUGUUACUUGACU,88.5%
10,sense AGUUGCAGUUGCGCCCGCG / antisense CGCGGGCGCAACUGCAACU,37.3%
11,sense CCGCGAACGACAUUUAUAA / antisense UUAUAAAUGUCGUUCGCGG,94.9%
12,sense AUGGAACCGCUGGAGAGCA / antisense UGCUCUCCAGCGGUUCCAU,35.4%
13,sense AACAACCGCGAAAAAGUUG / antisense CAACUUUUUCGCGGUUGUU,-5.7%
14,sense UACCGGAAAACUCGACGCA / antisense UGCGUCGAGUUUUCCGGUA,95.9%
15,sense AAGGCCCGGCGCCAUUCUA / antisense UAGAAUGGCGCCGGGCCUU,23%
16,sense UUUGUGGACGAAGUACCGA / antisense UCGGUACUUCGUCCACAAA,-18%
17,sense ACCGAAAGGUCUUACCGGA / antisense UCCGGUAAGACCUUUCGGU,94.7%
18,sense GGGCGCGGUCGGUAAAGUU / antisense AACUUUACCGACCGCGCCC,93.6%
19,sense CUCGACGCAAGAAAAAUCA / antisense UGAUUUUUCUUGCGUCGAG,91%
20,sense AAUCAGAGAGAUCCUCAUA / antisense UAUGAGGAUCUCUCUGAUU,91.7%
21,sense AAAAUCAGAGAGAUCCUCA / antisense UGAGGAUCUCUCUGAUUUU,88.4%
22,sense GGAAAGACGAUGACGGAAA / antisense UUUCCGUCAUCGUCUUUCC,87.6%
23,sense UUACGUCGCCAGUCAAGUA / antisense UACUUGACUGGCGACGUAA,92.9%
24,sense GAGCACGGAAAGACGAUGA / antisense UCAUCGUCUUUCCGUGCUC,20.3%

row,Substance,target inhibition
1,sense CUUACCGGAAAACUCGACG / antisense CGUCGAGUUUUCCGGUAAG,94.3%
2,sense AAAACAUAAAGAAAGGCCC / antisense GGGCCUUUCUUUAUGUUUU,11.1%
3,sense GCAUGCCAGAGAUCCUAUU / antisense AAUAGGAUCUCUGGCAUGC,94.5%
4,sense AAAGUUGCGCGGAGGAGUU / antisense AACUCCUCCGCGCAACUUU,95.5%
5,sense CCAGUCAAGUAACAACCGC / antisense GCGGUUGUUACUUGACUGG,66.1%
6,sense UGUGUUUGUGGACGAAGUA / antisense UACUUCGUCCACAAACACA,90.8%
7,sense AGAUCGUGGAUUACGUCGC / antisense GCGACGUAAUCCACGAUCU,67%
8,sense GCGGAGGAGUUGUGUUUGU / antisense ACAAACACAACUCCUCCGC,92.3%
9,sense GUCUUACCGGAAAACUCGA / antisense UCGAGUUUUCCGGUAAGAC,61%
10,sense UGACGGAAAAAGAGAUCGU / antisense ACGAUCUCUUUUUCCGUCA,88.8%
11,sense GUUGUUGUUUUGGAGCACG / antisense CGUGCUCCAAAACAACAAC,32.6%
12,sense AGUUGCGCGGAGGAGUUGU / antisense ACAACUCCUCCGCGCAACU,93.6%
13,sense UUGUUUUGGAGCACGGAAA / antisense UUUCCGUGCUCCAAAACAA,89.2%
14,sense ACCGCGAAAAAGUUGCGCG / antisense CGCGCAACUUUUUCGCGGU,29.9%
15,sense AAAACUCGACGCAAGAAAA / antisense UUUUCUUGCGUCGAGUUUU,94.6%
16,sense CGUGGAUUACGUCGCCAGU / antisense ACUGGCGACGUAAUCCACG,87.1%
17,sense CGCCGUUGUUGUUUUGGAG / antisense CUCCAAAACAACAACGGCG,74.8%
18,sense GCACGGAAAGACGAUGACG / antisense CGUCAUCGUCUUUCCGUGC,39.2%
19,sense UGAAGUCUCUGAUUAAGUA / antisense UACUUAAUCAGAGACUUCA,91.9%
20,sense AAAAAGUUGCGCGGAGGAG / antisense CUCCUCCGCGCAACUUUUU,38.8%
21,sense CGACGCAAGAAAAAUCAGA / antisense UCUGAUUUUUCUUGCGUCG,95.9%
22,sense AUCCGCUGGAAGAUGGAAC / antisense GUUCCAUCUUCCAGCGGAU,23.4%
23,sense ACGCCAAAAACAUAAAGAA / antisense UUCUUUAUGUUUUUGGCGU,94.9%
24,sense CGCCGCCGUUGUUGUUUUG / antisense CAAAACAACAACGGCGGCG,51.3%
